Source: PubChem BioAssay (NCI)
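All cell lines were grown in 96-well plates and treated with compound for 48 hours. TGI is the concentration that stops growth completely.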

What was measured:
Assay in all cases: inhibition of tumour cell growth, NCI panel, 48 h
T-47D breast = system: T-47D breast
M14 melanoma = system: M14 melanoma
RXF 393 renal = system: RXF 393 renal
UO-31 renal = system: UO-31 renal
HCC-2998 colon = system: HCC-2998 colon
COLO 205 colon = system: COLO 205 colon
OVCAR-8 ovarian = system: OVCAR-8 ovarian
SK-MEL-5 melanoma = system: SK-MEL-5 melanoma
HOP-62 NSCLC = system: HOP-62 NSCLC
DU-145 prostate = system: DU-145 prostate
HCT-116 colon = system: HCT-116 colon
SK-OV-3 ovarian = system: SK-OV-3 ovarian
MDA-MB-231 breast = system: MDA-MB-231 breast
OVCAR-5 ovarian = system: OVCAR-5 ovarian
SF-295 CNS = system: SF-295 CNS
HCT-15 colon = system: HCT-15 colon
HS 578T breast = system: HS 578T breast
K-562 leukemia = system: K-562 leukemia

## COC(=O)[C@H]1[C@H](OC(=O)[C@@H](OC)c2ccccc2)ON2CC[C@@H](OC(=O)c3ccccc3)[C@H]12
T-47D breast
  TGI: > 100 µM
M14 melanoma
  TGI: > 100 µM
RXF 393 renal
  TGI: > 100 µM
UO-31 renal
  TGI: > 100 µM
HCC-2998 colon
  TGI: > 100 µM
COLO 205 colon
  TGI: > 100 µM
OVCAR-8 ovarian
  TGI: > 100 µM
SK-MEL-5 melanoma
  TGI: > 100 µM
HOP-62 NSCLC
  TGI: > 100 µM
DU-145 prostate
  TGI: > 100 µM
HCT-116 colon
  TGI: > 100 µM
SK-OV-3 ovarian
  TGI: > 100 µM
MDA-MB-231 breast
  TGI: > 100 µM
OVCAR-5 ovarian
  TGI: > 100 µM
SF-295 CNS
  TGI: > 100 µM
HCT-15 colon
  TGI: > 100 µM
HS 578T breast
  TGI: > 100 µM
K-562 leukemia
  TGI: > 100 µM

## COC(=O)C1CCCCCCCCCCC12SCCCS2 (stereo not drawn)
T-47D breast
  TGI: > 100 µM
M14 melanoma
  TGI: 31 µM
RXF 393 renal
  TGI: 36.4 µM
UO-31 renal
  TGI: 38.8 µM
HCC-2998 colon
  TGI: 61 µM
COLO 205 colon
  TGI: 37.4 µM
OVCAR-8 ovarian
  TGI: 48.8 µM
SK-MEL-5 melanoma
  TGI: 41.9 µM
HOP-62 NSCLC
  TGI: 41.2 µM
DU-145 prostate
  TGI: 39.2 µM
HCT-116 colon
  TGI: 30.2 µM
SK-OV-3 ovarian
  TGI: > 100 µM
MDA-MB-231 breast
  TGI: 45.2 µM
OVCAR-5 ovarian
  TGI: 34.7 µM
SF-295 CNS
  TGI: 39 µM
HCT-15 colon
  TGI: > 100 µM
HS 578T breast
  TGI: 90.5 µM
K-562 leukemia
  TGI: 56.7 µM

## C=CCSC1=N/C(=C\c2ccco2)C(=O)N1CC=C
T-47D breast
  TGI: > 100 µM
M14 melanoma
  TGI: > 100 µM
RXF 393 renal
  TGI: 65.7 µM
UO-31 renal
  TGI: > 100 µM
HCC-2998 colon
  TGI: > 100 µM
COLO 205 colon
  TGI: > 100 µM
OVCAR-8 ovarian
  TGI: > 100 µM
SK-MEL-5 melanoma
  TGI: > 100 µM
HOP-62 NSCLC
  TGI: > 100 µM
DU-145 prostate
  TGI: > 100 µM
HCT-116 colon
  TGI: > 100 µM
SK-OV-3 ovarian
  TGI: > 100 µM
MDA-MB-231 breast
  TGI: > 100 µM
OVCAR-5 ovarian
  TGI: > 100 µM
SF-295 CNS
  TGI: > 100 µM
HCT-15 colon
  TGI: > 100 µM
HS 578T breast
  TGI: > 100 µM
K-562 leukemia
  TGI: > 100 µM

## CC(=O)N(CCc1ccccc1)C(C)(C#N)c1ccccc1 (stereo not drawn)
T-47D breast
  TGI: > 100 µM
M14 melanoma
  TGI: > 100 µM
RXF 393 renal
  TGI: > 100 µM
UO-31 renal
  TGI: > 100 µM
HCC-2998 colon
  TGI: > 100 µM
COLO 205 colon
  TGI: > 100 µM
OVCAR-8 ovarian
  TGI: > 100 µM
SK-MEL-5 melanoma
  TGI: > 100 µM
HOP-62 NSCLC
  TGI: > 100 µM
DU-145 prostate
  TGI: > 100 µM
HCT-116 colon
  TGI: > 100 µM
SK-OV-3 ovarian
  TGI: > 100 µM
MDA-MB-231 breast
  TGI: > 100 µM
OVCAR-5 ovarian
  TGI: > 100 µM
SF-295 CNS
  TGI: > 100 µM
HCT-15 colon
  TGI: > 100 µM
HS 578T breast
  TGI: > 100 µM
K-562 leukemia
  TGI: > 100 µM

## c1ncc(C23C4C5C6C4C2C6C53)[nH]1 (stereo not drawn)
T-47D breast
  TGI: > 100 µM
M14 melanoma
  TGI: > 100 µM
RXF 393 renal
  TGI: > 100 µM
UO-31 renal
  TGI: > 100 µM
HCC-2998 colon
  TGI: > 100 µM
COLO 205 colon
  TGI: > 100 µM
OVCAR-8 ovarian
  TGI: > 100 µM
SK-MEL-5 melanoma
  TGI: > 100 µM
HOP-62 NSCLC
  TGI: > 100 µM
DU-145 prostate
  TGI: > 100 µM
HCT-116 colon
  TGI: > 100 µM
SK-OV-3 ovarian
  TGI: > 100 µM
MDA-MB-231 breast
  TGI: > 100 µM
OVCAR-5 ovarian
  TGI: > 100 µM
SF-295 CNS
  TGI: > 100 µM
HCT-15 colon
  TGI: > 100 µM
HS 578T breast
  TGI: > 100 µM
K-562 leukemia
  TGI: > 100 µM

## CC(=O)Nc1ccccc1S(=O)(=O)c1c(-c2c(C)c(Cl)c(C)c(Cl)c2C)noc1C
T-47D breast
  TGI: > 100 µM
M14 melanoma
  TGI: > 100 µM
RXF 393 renal
  TGI: > 100 µM
UO-31 renal
  TGI: > 100 µM
HCC-2998 colon
  TGI: > 100 µM
COLO 205 colon
  TGI: > 100 µM
OVCAR-8 ovarian
  TGI: > 100 µM
SK-MEL-5 melanoma
  TGI: > 100 µM
HOP-62 NSCLC
  TGI: 50 µM
DU-145 prostate
  TGI: > 100 µM
HCT-116 colon
  TGI: > 100 µM
SK-OV-3 ovarian
  TGI: > 100 µM
MDA-MB-231 breast
  TGI: 88 µM
OVCAR-5 ovarian
  TGI: > 100 µM
SF-295 CNS
  TGI: > 100 µM
HCT-15 colon
  TGI: > 100 µM
HS 578T breast
  TGI: 73.7 µM
K-562 leukemia
  TGI: > 100 µM

## O=C(CCl)Nc1ccc(-c2nc3ccccc3s2)cc1
T-47D breast
  TGI: 5.59 µM
M14 melanoma
  TGI: 4.98 µM
RXF 393 renal
  TGI: 7.67 µM
UO-31 renal
  TGI: 20.6 µM
HCC-2998 colon
  TGI: 5.91 µM
COLO 205 colon
  TGI: 3.82 µM
OVCAR-8 ovarian
  TGI: 9.66 µM
SK-MEL-5 melanoma
  TGI: 3.17 µM
HOP-62 NSCLC
  TGI: 12.3 µM
DU-145 prostate
  TGI: 38 µM
HCT-116 colon
  TGI: 5.81 µM
SK-OV-3 ovarian
  TGI: 17.5 µM
MDA-MB-231 breast
  TGI: 16.8 µM
OVCAR-5 ovarian
  TGI: 17.1 µM
SF-295 CNS
  TGI: 15 µM
HCT-15 colon
  TGI: 6.65 µM
HS 578T breast
  TGI: 20.1 µM
K-562 leukemia
  TGI: 4.56 µM

## ClCc1nc2cc(Cl)ccc2o1
T-47D breast
  TGI: 5.15 µM
M14 melanoma
  TGI: 17.4 µM
RXF 393 renal
  TGI: 29.8 µM
UO-31 renal
  TGI: 2.54 µM
HCC-2998 colon
  TGI: 5.9 µM
COLO 205 colon
  TGI: 9 µM
OVCAR-8 ovarian
  TGI: 20 µM
SK-MEL-5 melanoma
  TGI: 25.8 µM
HOP-62 NSCLC
  TGI: 8.28 µM
DU-145 prostate
  TGI: 14.1 µM
HCT-116 colon
  TGI: 20.4 µM
SK-OV-3 ovarian
  TGI: 28.9 µM
MDA-MB-231 breast
  TGI: 10.2 µM
OVCAR-5 ovarian
  TGI: 38.6 µM
SF-295 CNS
  TGI: 37.4 µM
HCT-15 colon
  TGI: 16.7 µM
HS 578T breast
  TGI: > 61.5 µM
K-562 leukemia
  TGI: > 100 µM

## c1cc(-c2ccc(Oc3ccc(-c4ccncc4)cc3)cc2)ccn1
T-47D breast
  TGI: > 100 µM
M14 melanoma
  TGI: > 100 µM
RXF 393 renal
  TGI: > 86 µM
UO-31 renal
  TGI: > 100 µM
HCC-2998 colon
  TGI: > 54.5 µM
COLO 205 colon
  TGI: 18.7 µM
OVCAR-8 ovarian
  TGI: > 100 µM
SK-MEL-5 melanoma
  TGI: 5.52 µM
HOP-62 NSCLC
  TGI: > 100 µM
DU-145 prostate
  TGI: > 100 µM
HCT-116 colon
  TGI: > 100 µM
SK-OV-3 ovarian
  TGI: > 100 µM
MDA-MB-231 breast
  TGI: > 100 µM
OVCAR-5 ovarian
  TGI: > 100 µM
SF-295 CNS
  TGI: > 100 µM
HCT-15 colon
  TGI: 96.9 µM
HS 578T breast
  TGI: > 69.9 µM
K-562 leukemia
  TGI: > 100 µM

## CC(C)c1cc(C(C)C)c(P2(=O)CC3C(Cl)(Cl)C3(C)C2)c(C(C)C)c1 (stereo not drawn)
T-47D breast
  TGI: 27.7 µM
M14 melanoma
  TGI: 23.2 µM
RXF 393 renal
  TGI: 28.2 µM
UO-31 renal
  TGI: 3.44 µM
HCC-2998 colon
  TGI: 26.9 µM
COLO 205 colon
  TGI: 25 µM
OVCAR-8 ovarian
  TGI: 27.8 µM
SK-MEL-5 melanoma
  TGI: 22.4 µM
HOP-62 NSCLC
  TGI: 29 µM
DU-145 prostate
  TGI: 28.9 µM
HCT-116 colon
  TGI: 20.2 µM
SK-OV-3 ovarian
  TGI: 31.3 µM
MDA-MB-231 breast
  TGI: 24.8 µM
OVCAR-5 ovarian
  TGI: 30.5 µM
SF-295 CNS
  TGI: 18.6 µM
HCT-15 colon
  TGI: 25.1 µM
HS 578T breast
  TGI: 47.8 µM
K-562 leukemia
  TGI: > 44.1 µM

## O=C(O)c1ccccc1/C=C1\Cc2ccc3c(c2C1=O)CCCC3
T-47D breast
  TGI: 79.3 µM
M14 melanoma
  TGI: 81.1 µM
RXF 393 renal
  TGI: 76.3 µM
UO-31 renal
  TGI: > 100 µM
HCC-2998 colon
  TGI: 85.1 µM
COLO 205 colon
  TGI: > 100 µM
OVCAR-8 ovarian
  TGI: > 100 µM
SK-MEL-5 melanoma
  TGI: 37 µM
HOP-62 NSCLC
  TGI: > 100 µM
DU-145 prostate
  TGI: > 100 µM
HCT-116 colon
  TGI: 80.4 µM
SK-OV-3 ovarian
  TGI: > 100 µM
MDA-MB-231 breast
  TGI: 62.3 µM
OVCAR-5 ovarian
  TGI: > 100 µM
SF-295 CNS
  TGI: 99.5 µM
HCT-15 colon
  TGI: > 100 µM
HS 578T breast
  TGI: 81.2 µM
K-562 leukemia
  TGI: > 100 µM
